Results on 6 compounds are retold here after ChEMBL document CHEMBL6153138, “Discovery of Novel Aromatic Urea-Imidazole Salt Derivatives for Cancer Therapy via Targeting ERK1/2” (J Med Chem, 2025).

One test has as its system MDA-MB-468. The test is described as follows: Antiproliferative activity against human MDA-MB-468 cells incubated for 48 hrs by CCK-8 method. The following applies: MDA-MB-468, 48 h. The test is classed as functional, cell-based. (Formazan colour is commonly taken as a measure of viable cells.)
The IC50 is the concentration that inhibits the measured activity by half. Lower therefore signals higher potency. In turn, `Cc1ccc(C[n+]2cn(C[C@H](Cc3ccccc3)NC(=O)Nc3cc(C(F)(F)F)cc(C(F)(F)F)c3)c3ccccc32)cc1` displayed an IC50 of 2.24 µM.
As to `CC[n+]1cn(C[C@H](Cc2ccccc2)NC(=O)Nc2cc(C(F)(F)F)cc(C(F)(F)F)c2)c2ccccc21`, the IC50 is more than 10 µM.
On the same count and under the same terms, then `O=C(Nc1ccc(Br)cc1)N[C@@H](Cc1ccccc1)Cn1c[n+](Cc2ccc3ccccc3c2)c2ccccc21`, with 3.05 µM.

A further test deals with MCF-10A. Briefly: Antiproliferative activity against human MCF-10A cells incubated for 48 hrs by CCK-8 method. The class given is functional, cell-based.
Conditions: not given
`Cc1ccc(C[n+]2cn(C[C@H](Cc3ccccc3)NC(=O)Nc3cc(C(F)(F)F)cc(C(F)(F)F)c3)c3ccccc32)cc1`: the half-inhibitory concentration (IC50) is more than 10 µM.
Turning to `CC[n+]1cn(C[C@H](Cc2ccccc2)NC(=O)Nc2cc(C(F)(F)F)cc(C(F)(F)F)c2)c2ccccc21`, the IC50 was more than 10 µM.
Take `O=C(Nc1ccc(Br)cc1)N[C@@H](Cc1ccccc1)Cn1c[n+](Cc2ccc3ccccc3c2)c2ccccc21`: the IC50 was more than 10 µM.

The next test deals with A549. Briefly: Antiproliferative activity against human A549 cells incubated for 48 hrs by CCK-8 method. The class given is functional, cell-based. The following applies: A549, 48 h.
For `CC[C@@H](C)[C@@H](Cn1c[n+](Cc2ccccc2)c2ccccc21)NC(=O)Nc1cc(C(F)(F)F)cc(C(F)(F)F)c1`, the IC50 was found to be 3.92 µM.

The next test concerns 4T1. The test is described as follows: Antiproliferative activity against mouse 4T1 cells incubated for 48 hrs by CCK-8 method. The class given is functional, cell-based. The following applies: 4T1, 48 h.
Compound `Cc1ccc(C[n+]2cn(C[C@H](Cc3ccccc3)NC(=O)Nc3cc(C(F)(F)F)cc(C(F)(F)F)c3)c3ccccc32)cc1` gave a concentration for half-maximal inhibition (IC50) of 5.8 µM.
On to `CC[n+]1cn(C[C@H](Cc2ccccc2)NC(=O)Nc2cc(C(F)(F)F)cc(C(F)(F)F)c2)c2ccccc21`, for which the IC50 was more than 10 µM.
Still for that read-out and setting: then `O=C(Nc1ccc(Br)cc1)N[C@@H](Cc1ccccc1)Cn1c[n+](Cc2ccc3ccccc3c2)c2ccccc21`, with 6.37 µM.

The next test deals with Mitogen-activated protein kinase 1 (Homo sapiens, UniProt P28482). The test is described as follows: Inhibition of ERK2 (unknown origin) incubated for 60 mins by luminescence based ADP-Glo kinase assay.
Sequence of Mitogen-activated protein kinase 1 (P28482 whole entry): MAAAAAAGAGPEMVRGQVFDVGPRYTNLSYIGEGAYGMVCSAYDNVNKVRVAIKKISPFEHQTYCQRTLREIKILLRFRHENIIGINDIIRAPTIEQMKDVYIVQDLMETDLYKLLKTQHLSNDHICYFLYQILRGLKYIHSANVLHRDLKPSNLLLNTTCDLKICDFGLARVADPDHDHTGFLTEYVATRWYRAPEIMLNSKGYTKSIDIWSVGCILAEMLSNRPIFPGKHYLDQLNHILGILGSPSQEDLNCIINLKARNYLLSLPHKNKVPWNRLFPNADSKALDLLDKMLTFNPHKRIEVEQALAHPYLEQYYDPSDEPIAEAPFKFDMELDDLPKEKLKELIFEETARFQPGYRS
Conditions: not given
With `O=C(Nc1cc(C(F)(F)F)cc(C(F)(F)F)c1)N[C@@H](Cc1ccccc1)Cn1c[n+](Cc2ccccc2)c2ccccc21`, half-maximal inhibition (IC50) was put at 0.206 µM.
Still for that read-out and setting: then `Cc1n(C[C@@H](NC(=O)Nc2cc(C(F)(F)F)cc(C(F)(F)F)c2)C(C)C)cc[n+]1Cc1ccccc1`, with 0.535 µM.
The same measure, in the same setting: then `CC[C@@H](C)[C@@H](Cn1c[n+](Cc2ccccc2)c2ccccc21)NC(=O)Nc1cc(C(F)(F)F)cc(C(F)(F)F)c1`, with 0.283 µM.
Same read-out and setting: then `Cc1ccc(C[n+]2cn(C[C@H](Cc3ccccc3)NC(=O)Nc3cc(C(F)(F)F)cc(C(F)(F)F)c3)c3ccccc32)cc1`, with 0.315 µM; and `CC[n+]1cn(C[C@H](Cc2ccccc2)NC(=O)Nc2cc(C(F)(F)F)cc(C(F)(F)F)c2)c2ccccc21`, with more than 10 µM.
In turn, `O=C(Nc1ccc(Br)cc1)N[C@@H](Cc1ccccc1)Cn1c[n+](Cc2ccc3ccccc3c2)c2ccccc21` came in with an IC50 of 0.277 µM.

The subject of another test is HCC1937. Briefly: Antiproliferative activity against human HCC1937 cells incubated for 48 hrs by CCK-8 method. The class given is functional, cell-based. The following applies: HCC1937, 48 h.
Compound `Cc1ccc(C[n+]2cn(C[C@H](Cc3ccccc3)NC(=O)Nc3cc(C(F)(F)F)cc(C(F)(F)F)c3)c3ccccc32)cc1` displayed an IC50 of 1.49 µM.
The same measure, in the same setting: then `CC[n+]1cn(C[C@H](Cc2ccccc2)NC(=O)Nc2cc(C(F)(F)F)cc(C(F)(F)F)c2)c2ccccc21`, with more than 10 µM.
On the same count and under the same terms, then `O=C(Nc1ccc(Br)cc1)N[C@@H](Cc1ccccc1)Cn1c[n+](Cc2ccc3ccccc3c2)c2ccccc21`, with 6.56 µM.

The next test concerns HepG2. Briefly: Growth inhibition of human HepG2 cells at 5 uM incubated for 48 hrs by CCK-8 method relative to control. The test is classed as functional. The following applies: read-out: GI.
Consider `O=C(Nc1cc(C(F)(F)F)cc(C(F)(F)F)c1)N[C@@H](Cc1ccccc1)Cn1c[n+](Cc2ccccc2)c2ccccc21`, for which the inhibition of growth at 5 µM is 35.3%.
`Cc1n(C[C@@H](NC(=O)Nc2cc(C(F)(F)F)cc(C(F)(F)F)c2)C(C)C)cc[n+]1Cc1ccccc1`: the inhibition of growth at 5 µM was -4.95%.
Still for that read-out and setting: then `CC[C@@H](C)[C@@H](Cn1c[n+](Cc2ccccc2)c2ccccc21)NC(=O)Nc1cc(C(F)(F)F)cc(C(F)(F)F)c1`, with 100%.

A further test relates to 5637. Briefly: Antiproliferative activity against human 5637 cells incubated for 48 hrs by CCK-8 method. The test is classed as functional, cell-based. The conditions noted are these: Homo sapiens, 5637, 48 h.
Consider `CC[C@@H](C)[C@@H](Cn1c[n+](Cc2ccccc2)c2ccccc21)NC(=O)Nc1cc(C(F)(F)F)cc(C(F)(F)F)c1`, for which half-maximal inhibition (IC50) was put at 2.94 µM.

The subject of another test is A549. The test is described as follows: Growth inhibition of human A549 cells at 5 uM incubated for 48 hrs by CCK-8 method relative to control. The test is classed as functional. The following applies: read-out: GI.
Turning to `O=C(Nc1cc(C(F)(F)F)cc(C(F)(F)F)c1)N[C@@H](Cc1ccccc1)Cn1c[n+](Cc2ccccc2)c2ccccc21`, the inhibition of growth at 5 µM is 50.6%.
Same read-out and setting: then `Cc1n(C[C@@H](NC(=O)Nc2cc(C(F)(F)F)cc(C(F)(F)F)c2)C(C)C)cc[n+]1Cc1ccccc1`, with 7.87%; and `CC[C@@H](C)[C@@H](Cn1c[n+](Cc2ccccc2)c2ccccc21)NC(=O)Nc1cc(C(F)(F)F)cc(C(F)(F)F)c1`, with 97.8%.

For another test, the system named is HepG2. Briefly: Antiproliferative activity against human HepG2 cells incubated for 48 hrs by CCK-8 method. The class given is functional, cell-based. The conditions noted are these: HepG2, 48 h.
`CC[C@@H](C)[C@@H](Cn1c[n+](Cc2ccccc2)c2ccccc21)NC(=O)Nc1cc(C(F)(F)F)cc(C(F)(F)F)c1`: the IC50 is 2.33 µM. In other words, the single-digit micromolar range.

A further test deals with MCF7. Briefly: Growth inhibition of human MCF7 cells at 5 uM incubated for 48 hrs by CCK-8 method relative to control. The test is classed as functional. The conditions noted are these: read-out: GI.
As to `O=C(Nc1cc(C(F)(F)F)cc(C(F)(F)F)c1)N[C@@H](Cc1ccccc1)Cn1c[n+](Cc2ccccc2)c2ccccc21`, the inhibition of growth at 5 µM came to 99.5%.
The same measure, in the same setting: then `Cc1n(C[C@@H](NC(=O)Nc2cc(C(F)(F)F)cc(C(F)(F)F)c2)C(C)C)cc[n+]1Cc1ccccc1`, with 7.92%; and `CC[C@@H](C)[C@@H](Cn1c[n+](Cc2ccccc2)c2ccccc21)NC(=O)Nc1cc(C(F)(F)F)cc(C(F)(F)F)c1`, with 100%.

The next test concerns MCF7. Briefly: Antiproliferative activity against human MCF7 cells incubated for 48 hrs by CCK-8 method. The test is classed as functional, cell-based. The conditions noted are these: MCF7, 48 h.
In turn, `O=C(Nc1cc(C(F)(F)F)cc(C(F)(F)F)c1)N[C@@H](Cc1ccccc1)Cn1c[n+](Cc2ccccc2)c2ccccc21` had an IC50 of 1.55 µM.
In the case of `CC[C@@H](C)[C@@H](Cn1c[n+](Cc2ccccc2)c2ccccc21)NC(=O)Nc1cc(C(F)(F)F)cc(C(F)(F)F)c1`, the IC50 stood at 2.68 µM.
For the compound `Cc1ccc(C[n+]2cn(C[C@H](Cc3ccccc3)NC(=O)Nc3cc(C(F)(F)F)cc(C(F)(F)F)c3)c3ccccc32)cc1`, half-maximal inhibition (IC50) was put at 2.99 µM. This IC50 and that of the compound before are within 1.5-fold of each other.
The compound `CC[n+]1cn(C[C@H](Cc2ccccc2)NC(=O)Nc2cc(C(F)(F)F)cc(C(F)(F)F)c2)c2ccccc21` displayed an IC50 of more than 10 µM.
With `O=C(Nc1ccc(Br)cc1)N[C@@H](Cc1ccccc1)Cn1c[n+](Cc2ccc3ccccc3c2)c2ccccc21`, inhibition was half-maximal at 2.78 µM (IC50).

For another test, the system named is 5637. Briefly: Growth inhibition of human 5637 cells at 5 uM incubated for 48 hrs by CCK-8 method relative to control. The class given is functional. The following applies: read-out: GI.
For `O=C(Nc1cc(C(F)(F)F)cc(C(F)(F)F)c1)N[C@@H](Cc1ccccc1)Cn1c[n+](Cc2ccccc2)c2ccccc21`, the inhibition of growth at 5 µM came out at 56.8%.
Still for that read-out and setting: then `Cc1n(C[C@@H](NC(=O)Nc2cc(C(F)(F)F)cc(C(F)(F)F)c2)C(C)C)cc[n+]1Cc1ccccc1`, with 21.1%; and `CC[C@@H](C)[C@@H](Cn1c[n+](Cc2ccccc2)c2ccccc21)NC(=O)Nc1cc(C(F)(F)F)cc(C(F)(F)F)c1`, with 99.5%.
